Experimental data published in patent US20250368649A1, “TETRAHYDROPYRIDOPYRIMIDINE PAN-KRAS INHIBITORS” (Mirati Therapeutics, Inc., priority 2022, published 2025).

What was measured:
PSN1 cells = assay: Inhibition of KRas-mediated phosphorylation of ERK (Cisbio HTRF pERK), PSN1 cells; assay type: cell-based; conditions: Homo sapiens, PSN1, 3 h, 3 hour compound incubation, Cisbio pERK HTRF
Summary of the method: (§1)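 Day 1: 6,000 cells/well plated, RPMI + 10% FBS.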

HCT116 cells = assay: Inhibition of KRas-mediated phosphorylation of ERK (Cisbio HTRF pERK), HCT116 cells; assay type: cell-based; conditions: Homo sapiens; for inhibition at 0.1 µM: HCT-116, single point at 100 nM, 3 hrs compound incubation; for IC50: HCT-116, 3 h, 3 hr compound incubation, Cisbio pERK HTRF
KRas G12V = KRas G12V (Homo sapiens, UniProt P01116, G12V); assay: biochemical; conditions: Binding to KRas (IC50 nM) G12V, TR-FRET displacement, KRas G12V
H460 cells = assay: Inhibition of KRas-mediated phosphorylation of ERK (Cisbio HTRF pERK), H460 cells; assay type: cell-based; conditions: Homo sapiens; for inhibition at 0.1 µM: NCI-H460, single point at 100 nM, 3 hrs compound incubation; for IC50: NCI-H460, 3 h, 3 hr compound incubation, Cisbio pERK HTRF
MKN1 cells = assay: Inhibition of KRas-mediated phosphorylation of ERK (Cisbio HTRF pERK), MKN1 cells; assay type: cell-based; conditions: Homo sapiens, MKN-1, 3 hour compound incubation, Cisbio pERK HTRF
Summary of the method: as §1

A549 cells = assay: Inhibition of KRas-mediated phosphorylation of ERK (Cisbio HTRF pERK), A549 cells; assay type: cell-based; conditions: Homo sapiens; for inhibition at 0.1 µM: single point at 100 nM, 3 hrs compound incubation; for IC50: A549, 3 h, 3 hr compound incubation, Cisbio pERK HTRF
KRas G12R = KRas G12R (Homo sapiens, UniProt P01116, G12R); assay: biochemical; conditions: Binding to KRas (IC50 nM) G12R, TR-FRET displacement, KRas G12R
KRas G12D = KRas G12D (Homo sapiens, UniProt P01116, G12D); assay: biochemical; conditions: Binding to KRas (IC50 nM) G12D, TR-FRET displacement, KRas G12D
ASPC1 cells = assay: Inhibition of KRas-mediated phosphorylation of ERK (Cisbio HTRF pERK), ASPC1 cells; assay type: cell-based; conditions: Homo sapiens, AsPC-1 cells; for IC50: ASPC1, 3 h, 3 hr compound incubation, Cisbio pERK HTRF; for inhibition at 0.1 µM: ASPC1, single point at 100 nM, 3 hrs compound incubation
H358 cells = assay: Inhibition of KRas-mediated phosphorylation of ERK (Cisbio HTRF pERK), H358 cells; assay type: cell-based; conditions: Homo sapiens; for inhibition at 0.1 µM: NCI-H358, single point at 100 nM, 3 hrs compound incubation; for IC50: NCI-H358, 3 h, 3 hr compound incubation, Cisbio pERK HTRF
H727 cells = assay: Inhibition of KRas-mediated phosphorylation of ERK (Cisbio HTRF pERK), H727 cells; assay type: cell-based; conditions: Homo sapiens; for IC50: NCI-H727, 3 h, 3 hr compound incubation, Cisbio pERK HTRF; for inhibition at 0.1 µM: NCI-H727, single point at 100 nM, 3 hrs compound incubation

KRas G12R, sequence (P01116 1-169 isoform P01116-2 G12R): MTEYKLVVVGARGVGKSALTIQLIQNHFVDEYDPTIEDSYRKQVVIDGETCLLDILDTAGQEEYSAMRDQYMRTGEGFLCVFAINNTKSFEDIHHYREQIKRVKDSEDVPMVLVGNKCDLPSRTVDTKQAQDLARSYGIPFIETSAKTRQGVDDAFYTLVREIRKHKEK
KRas G12D, sequence (P01116 1-169 isoform P01116-2 G12D): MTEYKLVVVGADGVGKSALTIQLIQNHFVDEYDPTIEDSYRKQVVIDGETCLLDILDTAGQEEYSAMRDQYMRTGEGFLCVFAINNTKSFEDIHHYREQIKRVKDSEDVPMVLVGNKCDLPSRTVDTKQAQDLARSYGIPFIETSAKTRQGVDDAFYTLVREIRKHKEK
KRas G12V, sequence (P01116 1-169 isoform P01116-2 G12V): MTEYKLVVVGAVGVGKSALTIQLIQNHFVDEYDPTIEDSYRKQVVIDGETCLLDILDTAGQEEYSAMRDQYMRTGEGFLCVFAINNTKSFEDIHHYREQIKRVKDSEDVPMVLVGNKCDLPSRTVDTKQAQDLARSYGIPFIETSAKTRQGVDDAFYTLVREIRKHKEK

| SMILES | IC50 (PSN1 cells) [nM] | inhibition at 0.1 µM (HCT116 cells) [%] | IC50 (KRas G12V) [nM] | inhibition at 0.1 µM (H460 cells) [%] | IC50 (MKN1 cells) [nM] | inhibition at 0.1 µM (A549 cells) [%] | IC50 (KRas G12R) [nM] | IC50 (KRas G12D) [nM] | IC50 (ASPC1 cells) [nM] | inhibition at 0.1 µM (ASPC1 cells) [%] | inhibition at 0.1 µM (H358 cells) [%] | IC50 (H727 cells) [nM] | inhibition at 0.1 µM (H727 cells) [%] | IC50 (HCT116 cells) [nM] | IC50 (H460 cells) [nM] | IC50 (A549 cells) [nM] | IC50 (H358 cells) [nM] |
| --- | --- | --- | --- | --- | --- | --- | --- | --- | --- | --- | --- | --- | --- | --- | --- | --- | --- |
| CCc1c(F)ccc2cc(O)cc(N3CCc4c(nc(OC[C@@]56CCCN5C[C@H](F)C6)nc4N4CCCn5nc(C(=O)N6CC7CC(C6)N(C)C7)cc5C4)C3)c12 (stereo partly drawn) [Example 500, (5-(7-(8-ethyl-7-fluoro-3-hydroxynaphthalen-1-yl)-2-(((2R,7aS)-2-fluorohexahydro-1H-pyrrolizin-7a-yl)methoxy)-5,6,7,8-tetrahydropyrido[3,4-d]pyrimidin-4-yl)-5,6,7,8-tetrahydro-4H-pyrazolo[1,5-a][1,4]diazepin-2-yl)(6-methyl-3,6-diazabicyclo[3.2.1]octan-3-yl)methanone] | > 10000 | 11 | < 2 | 22 | 37.2 | 46 | < 2 | < 2 | 25 | 91 | 74 | 203 | 20 |  |  |  |  |
| CCc1c(F)ccc2cc(O)cc(N3CCc4c(nc(OC[C@@]56CCCN5C[C@H](F)C6)nc4N4CCCn5nc(C(=O)N6CCC7CC6CN7C)cc5C4)C3)c12 (stereo partly drawn) [Example 501, (5-(7-(8-ethyl-7-fluoro-3-hydroxynaphthalen-1-yl)-2-(((2R,7aS)-2-fluorohexahydro-1H-pyrrolizin-7a-yl)methoxy)-5,6,7,8-tetrahydropyrido[3,4-d]pyrimidin-4-yl)-5,6,7,8-tetrahydro-4H-pyrazolo[1,5-a][1,4]diazepin-2-yl)(6-methyl-2,6-diazabicyclo[3.2.1]octan-2-yl)methanone] | > 10000 | 23 | < 2 | 17 | 41.2 | 27 | 2 | < 2 | 23 | 86 | 95 | 132 | 40 |  |  |  |  |
| CCc1c(F)ccc2cc(O)cc(N3CCc4c(nc(OC[C@@]56CCCN5C[C@H](F)C6)nc4N4CCCCn5nc(C(=O)NC(C)C)c(Cl)c5C4)C3)c12 [Example 506, 3-chloro-5-(7-(8-ethyl-7-fluoro-3-hydroxynaphthalen-1-yl)-2-(((2R,7aS)-2-fluorotetrahydro-1H-pyrrolizin-7a(5H)-yl)methoxy)-5,6,7,8-tetrahydropyrido[3,4-d]pyrimidin-4-yl)-N-isopropyl-4,5,6,7,8,9-hexahydropyrazolo[1,5-a][1,4] diazocine-2-carboxamide] | 1090 | 34 | < 2 | 71 | 9.9 |  | < 2 | < 2 | 10 | 97 |  | 5 | 80 | 298 | 81 | 17 | 4 |
| CCc1c(F)ccc2cc(O)cc(N3CCc4c(nc(OC[C@@]56CCCN5C[C@H](F)C6)nc4N4CCCCn5nc(C(=O)N(C)C)c(Br)c5C4)C3)c12 [Example 507, 3-bromo-5-(7-(8-ethyl-7-fluoro-3-hydroxynaphthalen-1-yl)-2-(((2R,7aS)-2-fluorotetrahydro-1H-pyrrolizin-7a(5H)-yl)methoxy)-5,6,7,8-tetrahydropyrido[3,4-d]pyrimidin-4-yl)-N,N-dimethyl-4,5,6,7,8,9-hexahydropyrazolo[1,5-a][1,4] diazocine-2-carboxamide] | 1320 | 51 | < 2 | 84 | 5.5 | 76 | < 2 | < 2 | 10 | 96 | 101 | 4 | 79 | 39 | 13 | 6 | 1 |
| Cc1c(F)ccc2cc(O)cc(N3CCc4c(nc(OC[C@@]56CCCN5C[C@H](F)C6)nc4N4CCCC5(CNS(=O)(=O)N5)C4)C3)c12 (stereo partly drawn) [Example 512, 7-(7-(7-fluoro-3-hydroxy-8-methylnaphthalen-1-yl)-2-(((2R,7aS)-2-fluorohexahydro-1H-pyrrolizin-7a-yl)methoxy)-5,6,7,8-tetrahydropyrido[3,4-d]pyrimidin-4-yl)-2-thia-1,3,7-triazaspiro[4.5]decane 2,2-dioxide] | 276 | 56 | < 2 | 79 | 12.6 | 71 | 2 | < 2 | 30 | 74 | 92 | 85 | 42 |  |  |  |  |
